Assays:
[1] = system: Pax7, MyoD, MyoG, Myf5, MyHC3, and MyHC8; test: CTX-induced muscle injury: transcript levels of regeneration genes; type: in vivo, mice
Method: Impairment of muscle regeneration can contribute to age-related muscle weakness. This is particularly true in aged individuals who engage in physical activity. Exercise-induced muscle hypertrophy is linked to the capacity of muscle stem cells to be activated and promote regeneration. […] Mice were i.p injected with buprenorphine (Centravet, 0.1 mg/kg) 30 minutes before injury and the day after. The day of the injury, mice were anesthetized with isoflurane inhalation and hindlimbs were shaved. Then, 10 μM of cardiotoxin (CTX, Latoxan, #L8102) was injected through two injections of 25 μl into the left tibialis muscle and two injections of 50 μl into the left gastrocnemius muscle, using a 22-gauge needle (Hamilton). Mice were euthanized 3 and 7 days after injury by cervical dislocation, muscles (PBS- and CTX-injected) were cut in two parts, one being snap frozen into liquid nitrogen for total RNA extraction and the other part being embedded into OCT, frozen in isopentane cooled with liquid nitrogen for histological analysis.

[2] = system: tibialis of aged mice; test: CTX-induced muscle injury: histology (cross-sectional area, centrally nucleated fibers); type: in vivo
Method: Impairment of muscle regeneration can contribute to age-related muscle weakness. This is particularly true in aged individuals who engage in physical activity. Exercise-induced muscle hypertrophy is linked to the capacity of muscle stem cells to be activated and promote regeneration.
Mice were i.p injected with buprenorphine (Centravet, 0.1 mg/kg) 30 minutes before injury and the day after. The day of the injury, mice were anesthetized with isoflurane inhalation and hindlimbs were shaved. Then, 10 μM of cardiotoxin (CTX, Latoxan, #L8102) was injected through two injections of 25 μl into the left tibialis muscle and two injections of 50 μl into the left gastrocnemius muscle, using a 22-gauge needle (Hamilton). Mice were euthanized 3 and 7 days after injury by cervical dislocation, muscles (PBS- and CTX-injected) were cut in two parts, one being snap frozen into liquid nitrogen for total RNA extraction and the other part being embedded into OCT, frozen in isopentane cooled with liquid nitrogen for histological analysis.
Mouse muscle samples were dissected and cryopreserved in OCT frozen in liquid nitrogen cooled isopentane. Samples were then sectioned at 10 μm on a cryostat and post-fixed with 4% Paraformaldehyde (PFA) for 15min at room temperature. Muscle frozen sections (10 μm) were stained by helaun/eosin or immune-labeled for laminin (Abcam) and embryonic myosin. Briefly, sections were blocked 1 h in PBS plus 4% BS(a), 2% goat serum, 0.01% Triton X-100. Sections were then incubated overnight with primary antibodies. After washes in PBS, sections were incubated 1 h with secondary antibodies anti-Ig2b AF 488 (Life Technology). Slides were finally mounted in ProLong Gold antifade Reagent (Molecular probes by Life Technology) with DAPI. Images were captured using a digital camera (Nanozoomer, Hamamatsu) attached to a motorized fluorescence microscope or using Olympus VS120 Virtual Microscopy Slide Scanning System. The area covered by eMHC-positive fibers and degenerated area was determined manually across the entire sections using the VS-ASW FL software measurement tools. The size of myofibers with central nuclei was calculated from laminin/DAPI staining on all fibers of the section and area determination were performed across the entire sections, using an automated image processing algorithm developed internally using the MetaXpress software (Molecular Devices).

[3] = gastrocnemius, aged mice, 3 or 7 days, apelin 0.5 μmol/kg/day, BGE-105 50 and 200 mg/kg/day
[4] = gastrocnemius, young mice, 3 or 7 days, apelin 0.5 μmol/kg/day, BGE-105 50 and 200 mg/kg/day
[5] = tibialis anterior, aged mice, 7 days, apelin 0.5 μmol/kg/day, BGE-105 50 and 200 mg/kg/day
[6] = tibialis, young mice, 3 or 7 days, apelin 0.5 μmol/kg/day, BGE-105 50 and 200 mg/kg/day

CSCC[C@H](NC(=O)[C@@H]1CCCN1C(=O)CNC(=O)[C@H](CCCCN)NC(=O)[C@H](Cc1c[nH]cn1)NC(=O)[C@H](CO)NC(=O)[C@H](CC(C)C)NC(=O)[C@H](CCCNC(=N)N)NC(=O)[C@@H]1CCCN1C(=O)[C@H](CCCNC(=N)N)NC(=O)[C@@H]1CCC(=O)N1)C(=O)N1CCC[C@H]1C(=O)N[C@@H](Cc1ccccc1)C(=O)O [Pyr^1-Apelin-13, reference compound]
Pax7 transcript levels ([1]; gastrocnemius, aged (18-month-old) mice, 3 or 7 days, apelin 0.5 μmol/kg/day, BGE-105 50 and 200 mg/kg/day): no significant change | MyoD transcript levels ([1]; gastrocnemius, aged mice, 3 and 7 days, apelin 0.5 μmol/kg/day, BGE-105 50 and 200 mg/kg/day): significant increase | Myf5 transcript levels [1, 3]: no significant change | MyoG transcript levels [1, 3]: no significant change | MyHC8 transcript levels ([1]; gastrocnemius, aged mice, any time point, any treatment): does not show a change | Pax7 transcript levels ([1]; gastrocnemius, young (3-month-old) mice, 3 or 7 days, apelin 0.5 μmol/kg/day, BGE-105 50 and 200 mg/kg/day): no change | Myf5 transcript levels [1, 4]: no change | MyoD transcript levels [1, 4]: no change | MyoG transcript levels [1, 4]: no change | MyHC8 transcript levels ([1]; gastrocnemius, young mice, 3 days, apelin 0.5 μmol/kg/day, BGE-105 50 and 200 mg/kg/day): non-significant increase | Pax7 transcript levels ([1]; tibialis anterior, aged (18-month-old) mice, 7 days post cardiotoxin, apelin 0.5 μmol/kg/day, BGE-105 50 and 200 mg/kg/day): significant increase | MyoD transcript levels ([1]; tibialis anterior, aged mice, 3 and 7 days post cardiotoxin, apelin 0.5 μmol/kg/day, BGE-105 50 and 200 mg/kg/day): significant increase | MyHC3 transcript levels [1, 5]: significant increase | Myf5 transcript levels [1, 5]: significant change | MyoG transcript levels [1, 5]: significant increase | Pax7 transcript levels ([1]; tibialis, young (3-month-old) mice, 3 or 7 days, apelin 0.5 μmol/kg/day, BGE-105 50 and 200 mg/kg/day): no change | MyHC3 transcript levels [1, 6]: no significant change | MyHC8 transcript levels [1, 6]: no significant change | Myf5 transcript levels [1, 6]: no difference | MyoD transcript levels [1, 6]: no significant increase | MyoG transcript levels [1, 6]: no difference | amount of centrally nucleated myofibers (CNM) ([2]; 18-months old mice after cardiotoxin, apelin 0.5 μmol/kg/day, BGE-105 200 mg/kg/day): significant increase | cross-sectional area of the tibialis ([2]; aged mice, 3 and 7 days post cardiotoxin, apelin, BGE-105 50 and 200 mg/kg/d): significant increase in cross sectional area

— US20240252493A1, “Apelin Receptor Modulators for Treating Age-Related Muscle Conditions” (BIOAGE LABS, INC., priority 2021, published 2024)
